Test results: patent US20190031618A1, “BENZIMIDAZOLE DERIVATIVES USEFUL AS CB-1 INVERSE AGONISTS” (Janssen Pharmaceutica NV, priority 2015, published 2019)
Several values for one entry are separate records, joined by “and”; a condition that tells them apart may be missing. Equal values may be shown once.

Columns and labels:
[1] = Five-Day Study in DIO Mice: plasma and brain compound levels; conditions: mouse, in vivo, 30 mg/kg
in vivo = conditions: mouse, 30 mg/kg

concentration at 2 h (in vivo)	SMILES	concentration at 2 h [1]
	CCc1nc2ccc(C(c3ccc(Cl)cc3)c3ccc(Cl)cc3)cc2n1C1CCN(S(=O)(=O)C(F)(F)F)CC1 [Example 328]	8360 ng/mL and 291 ng/g
7660 ng/mL and 208 ng/g	O=S(=O)(N1CCC(n2c(C3CC3)nc3ccc(C(c4ccc(Cl)cc4)c4ccc(Cl)cc4)cc32)CC1)C(F)(F)F [Example 335]	
